Measurements as given in publication PMC5662472 (Chemical communications (Cambridge, England), 2017).

What was measured:
[1] = target: Helicobacter pylori α1–3/4-fucosyltransferase (Hp3/4FT) (Helicobacter pylori, UniProt Q9L8S4); assay: HPLC fucosyltransferase assay; conditions: acceptor; co-substrate GDP-Fuc; labelled compound
[2] = tested on: C[C@@H]1O[C@H](OP(=O)(O)OP(=O)(O)OC[C@H]2O[C@@H](n3cnc4c(=O)[nH]c(N)nc43)[C@H](O)[C@@H]2O)[C@@H](O)[C@H](O)[C@@H]1O; assay: purified protein; conditions: donor; co-substrate LacNAcβPro2AA (best acceptor)

Row | Substance | Km [1] [µM] | Km [2] [µM] | kcat [2] [s⁻¹] | kcat/Km [2] [M⁻¹ s⁻¹]
1 | Galβ3GlcNAcβPro2AA | 1320 ± 240 | – | – | –
2 | Helicobacter pylori α1–3/4-fucosyltransferase (Hp3/4FT) (Helicobacter pylori) | – | 860 ± 130 | 6.02 ± 0.26 | 7010
3 | LacNAcβPro2AA | 460 ± 70 | – | – | –
4 | LacβPro2AA | 990 ± 180 | – | – | –
